Assay results reported in PMC11714206, “Massively Parallel Screening of Toll/Interleukin‐1 Receptor (TIR)‐Derived Peptides Reveals Multiple Toll‐Like Receptors (TLRs)‐Targeting Immunomodulatory Peptides” (Advanced Science, 2024).

Target: T1, MAL^TIR (Homo sapiens, UniProt P58753)
T1 construct: MAL (residues 79–221); 6xHis; made in house; host or cells: E. coli BL21 (DE3)
Assay: T‐Surf phage library (P8 and P3) selection against MAL^TIR, four rounds, NGS read counts
Assay type: binding
Details: for P3_MAL Rank (after) / P3_MAL Rank (before): P3 library; for P8_MAL Rank (after) / P8_MAL Rank (before): P8 library; for Population: 4th round of selection against MAL TIR, share of NGS reads
Summary of the method: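 Read counts come from NGS of phage pools after the fourth selection round, barcoded by 20-cycle PCR and filtered for quality ≥30. Each round: phage incubated 1 h at RT on immobilised TIR protein (5 µg mL^−1, BSA-blocked), washed, HCl-eluted and amplified in E. coli TG1.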

[1] = selection against MAL TIR, rank by count after grouping
[2] = selection against MAL TIR, rank by count before grouping
[3] = selection against MAL, rank by count after grouping
[4] = selection against MAL, rank by count before grouping
[5] = P3_MAL: rank by count after grouping
[6] = P3_MAL: rank by count before grouping
[7] = 4R selection against MAL, rank after grouping
[8] = 4R selection against MAL, rank before grouping
[9] = P8_MAL pool: P8 T-Surf phage library
[10] = P8_MAL: rank by count after grouping
[11] = P8_MAL: rank by count before grouping
[12] = selection against MAL, rank after grouping
[13] = selection against MAL, rank before grouping
[14] = P3_MAL pool: P3 T-Surf phage library

T1 sequence (P58753 79-221): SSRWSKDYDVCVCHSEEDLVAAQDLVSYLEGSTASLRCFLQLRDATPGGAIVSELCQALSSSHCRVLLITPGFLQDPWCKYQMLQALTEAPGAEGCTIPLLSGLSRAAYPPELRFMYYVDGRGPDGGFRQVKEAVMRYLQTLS

Sequence: ESILNQLRRSSQSFAT
- P3_MAL Rank (after) [1]: 260
- P3_MAL Rank (before) [2]: 2056

Sequence: KRFEDRMNKVLEWKAA
- P8_MAL Rank (after) [3]: 698
- P8_MAL Rank (before) [4]: 2674

Sequence: YAFTGHLQRYLLQRGV
- Rank (after) [5]: 188
- Rank (before) [6]: 1460

Sequence: NQWRNALTAAAHLSGL
- Rank (after) [5]: 157
- Rank (before) [6]: 3362

Sequence: SNLREGLWGLLELSKK
- P3_MAL Rank (after) [3]: 684
- P3_MAL Rank (before) [4]: 3216

Sequence: LKVERWRQALEKADKL
- P3_MAL Rank (after) [1]: 215
- P3_MAL Rank (before) [2]: 2299

Sequence: WHFHLRLRMLALLQKM
- P3_MAL Rank (after) [7]: 582
- P3_MAL Rank (before) [8]: 1294

Sequence: AFFRDQLRTVLGKPTM
- P8_MAL Rank (after) [7]: 609
- P8_MAL Rank (before) [8]: 1751

Sequence: NQWRNALTAAANLSDR
- P3_MAL Rank (after) [1]: 282
- P3_MAL Rank (before) [2]: 3379

Sequence: YFLHFLLFSRPETEYI
- Rank (after) [5]: 386
- Rank (before) [6]: 1336

Sequence: HQKGSYGEAPAEHEKR
- Rank (after) [5]: 397
- Rank (before) [6]: 2901

Sequence: AFLYTFPINLTHPTNF
- Population [9]: 0.0034%

Sequence: SICREGLWRLLELSKK
- P3_MAL Rank (after) [1]: 284
- P3_MAL Rank (before) [2]: 3117

Sequence: NLIQGWLLYRLLKIEK
- P8_MAL Rank (after) [1]: 286
- P8_MAL Rank (before) [2]: 2678

Sequence: PLLYTFLINLTHPTNF
- Rank (after) [10]: 104
- Rank (before) [11]: 2327

Sequence: YAFTDHLHRYLVQRSE
- P3_MAL Rank (after) [12]: 555
- P3_MAL Rank (before) [13]: 1462

Sequence: YNFISHLYDTLHRNRN
- P3_MAL Rank (after) [1]: 272
- P3_MAL Rank (before) [2]: 1578

Sequence: WFNIRLVTVLDHVNDV
- P8_MAL Rank (after) [12]: 573
- P8_MAL Rank (before) [13]: 1391

Sequence: SFLHFLLFSRPETASI
- P8_MAL Rank (after) [7]: 642
- P8_MAL Rank (before) [8]: 1437

Sequence: WFYERLVKLVLRDTKV
- Rank (after) [10]: 166
- Rank (before) [11]: 1244

Sequence: AFLYTFLINLTHPTTF
- Population [9]: 0.0034%

Sequence: VLQNFISHPYDFLARK
- P3_MAL Rank (after) [12]: 570
- P3_MAL Rank (before) [13]: 1688

Sequence: RGFLSHLRNHLQAKDP
- P3_MAL Rank (after) [1]: 210
- P3_MAL Rank (before) [2]: 2408

Sequence: YFLHFLLLAVRKPSI
- P8_MAL Rank (after) [1]: 196
- P8_MAL Rank (before) [2]: 791

Sequence: WFLFTVRSAIYSISRA
- P8_MAL Rank (after) [3]: 692
- P8_MAL Rank (before) [4]: 1346

Sequence: HHKGSYGEALHQFHSWV
- P3_MAL Rank (after) [12]: 541
- P3_MAL Rank (before) [13]: 2842

Sequence: FLNFRGLYVRNYFLGP
- Rank (after) [5]: 462
- Rank (before) [6]: 1145

Sequence: PNLRTNVMNYLMRTKT
- Rank (after) [5]: 175
- Rank (before) [6]: 2692

Sequence: RGFLSHLRYHLPAPQH
- Rank (after) [5]: 129
- Rank (before) [6]: 333

Sequence: WFYEPLVSVILPDTKV
- P8_MAL Rank (after) [12]: 561
- P8_MAL Rank (before) [13]: 1292

Sequence: KSILDTEARIWAGVR
- P3_MAL Rank (after) [3]: 695
- P3_MAL Rank (before) [4]: 3728

Sequence: VEPTQGRKQLGAVENA
- P3_MAL Rank (after) [12]: 573
- P3_MAL Rank (before) [13]: 1683

Sequence: PEKDHGGENAIIKNIE
- P3_MAL Rank (after) [12]: 556
- P3_MAL Rank (before) [13]: 2639

Sequence: YAFTGHLHRYLVQRGI
- Population [14]: 0.00338%

Sequence: LKVESWRQALKQRAL
- P3_MAL Rank (after) [12]: 483
- P3_MAL Rank (before) [13]: 2283

Sequence: KHCWDRLCYMVNDSSR
- P3_MAL Rank (after) [3]: 721
- P3_MAL Rank (before) [4]: 3468

Sequence: RGVLSRLRHHLQAKDH
- P3_MAL Rank (after) [12]: 551
- P3_MAL Rank (before) [13]: 2427

Sequence: RFYEAQLILVLRNTKM
- P8_MAL Rank (after) [7]: 672
- P8_MAL Rank (before) [8]: 2302

Sequence: AFFWAQLKRAGQSDD
- P8_MAL Rank (after) [1]: 257
- P8_MAL Rank (before) [2]: 1607

Sequence: NQCHNAITADMNQTRL
- Rank (after) [5]: 402
- Rank (before) [6]: 3424

Sequence: RFWERPRYLTPSNNHR
- P3_MAL Rank (after) [3]: 769
- P3_MAL Rank (before) [4]: 2322

Sequence: KIILDTAARIWGWRQA
- P3_MAL Rank (after) [1]: 227
- P3_MAL Rank (before) [2]: 3704

Sequence: TFLGQTYNAQAPAEIP
- P8_MAL Rank (after) [7]: 644
- P8_MAL Rank (before) [8]: 2613

Sequence: AFFWAQLKSELGNPSM
- P8_MAL Rank (after) [12]: 515
- P8_MAL Rank (before) [13]: 1644

Sequence: TFLGHLYNALLQPGIH
- Rank (after) [10]: 181
- Rank (before) [11]: 2616

Sequence: YFWHALKNALAEHEKR
- P3_MAL Rank (after) [7]: 674
- P3_MAL Rank (before) [8]: 1334

Sequence: WLYERLVGLILRYTKV
- P8_MAL Rank (after) [7]: 638
- P8_MAL Rank (before) [8]: 1425

Sequence: LHNNRILVLITLPTNV
- P3_MAL Rank (after) [7]: 671
- P3_MAL Rank (before) [8]: 2132

Sequence: VEPTQVRKQSGAVENATG
- P3_MAL Rank (after) [3]: 676
- P3_MAL Rank (before) [4]: 1673

Sequence: GFLYQAFAREGLQIFM
- Rank (after) [5]: 164
- Rank (before) [6]: 1739

Sequence: LFYGRMVSLILRDTNV
- P8_MAL Rank (after) [7]: 639
- P8_MAL Rank (before) [8]: 1100

Sequence: WFYERLVSLILPVTKV
- P8_MAL Rank (after) [1]: 229
- P8_MAL Rank (before) [2]: 1264

Sequence: RLLKWKEALQQFHSGV
- Rank (after) [5]: 177
- Rank (before) [6]: 2497

Sequence: RNFVAYLFQALANKSI
- Population [9]: 0.00309%

Sequence: TFLGHLYNALLRSDGR
- P8_MAL Rank (after) [7]: 654
- P8_MAL Rank (before) [8]: 2590

Sequence: RGFLSHLRHHLQAIDH
- Population [14]: 0.00488%

Sequence: RGFLSHLRHHLQAKD
- P3_MAL Rank (after) [7]: 648
- P3_MAL Rank (before) [8]: 2376

Sequence: HFFWIQLKNILGENSF
- P8_MAL Rank (after) [7]: 610
- P8_MAL Rank (before) [8]: 2417

Sequence: RGFLSHLRHHLQEQDH
- P3_MAL Rank (after) [1]: 256
- P3_MAL Rank (before) [2]: 2378

Sequence: TFLGHLYNTLVQASIF
- Rank (after) [10]: 391
- Rank (before) [11]: 2537

Sequence: RNFVAHLFQALANKAI
- P8_MAL Rank (after) [7]: 667
- P8_MAL Rank (before) [8]: 2233

Sequence: AFLWTQLKNVLGNPTF
- Rank (after) [10]: 408
- Rank (before) [11]: 1766

Sequence: NQWRNALTAAAKLSGG
- P3_MAL Rank (after) [12]: 564
- P3_MAL Rank (before) [13]: 3384

Sequence: RNNFIGHLYQALYRI
- P8_MAL Rank (after) [3]: 676
- P8_MAL Rank (before) [4]: 2274

Sequence: TRPYLDWPQEPEMHEA
- Rank (after) [10]: 434
- Rank (before) [11]: 2652
